The record followed here is patent publication US10786484B2, “Mono- or di-substituted indole derivatives as dengue viral replication inhibitors” (Janssen Pharmaceuticals, Inc., priority 2015, dated 2020).

Series [1] deals with DENV-2 16681 strain labeled with eGFP. Briefly: DENV-2 antiviral assay (eGFP fluorescence read-out in Vero cells). The settings on record: DENV-2 16681 eGFP, MOI 0.5, 3 days. Format: cell-based, Dengue virus. Here is the method: The antiviral activity of all the compounds of the invention was tested against the DENV-2 16681 strain which was labeled with enhanced green fluorescent protein (eGPF). The culture medium consists of minimal essential medium supplemented with 2% of heat-inactivated fetal calf serum, 0.04% gentamycin (50 mg/mL) and 2 mM of L-glutamine. Vero cells, obtained from ECACC, were suspended in culture medium and 25 μL was added to 384-well plates (2500 cells/well), which already contain the antiviral compounds. Typically, these plates contain a 5-fold serial dilution of 9 dilution steps of the test compound at 200 times the final concentration in 100% DMSO (200 nL). […] Finally, each plate contains wells which are assigned as virus controls (containing cells and virus in the absence of compound), cell controls (containing cells in the absence of virus and compound) and medium controls (containing medium in the absence of cells, virus and compounds). To the wells assigned as medium control, 25 μL of culture medium was added instead of Vero cells. Once the cells were added to the plates, the plates were incubated for 30 minutes at room temperature to allow the cells to distribute evenly within the wells. Next, the plates were incubated in a fully humidified incubator (37° C., 5% CO2) until the next day. Then, DENV-2 strain 16681, labeled with eGFP, was added at a multiplicity of infection (MOI) of 0.5. Therefore, 15 μL of virus suspension was added to all the wells containing test compound and to the wells assigned as virus control. In parallel, 15 μL of culture medium was added to the medium and cell controls. Next, the plates were incubated for 3 days in a fully humidified incubator (37° C., 5% CO2). At the day of the read out, the eGFP fluorescence was measured using an automated fluorescence microscope at 488 nm (blue laser). Using an in-house LIMS system, inhibition dose response curves for each compound were calculated and the half maximal effective concentration (EC50) was determined. Therefore, the percent inhibition (I) for every test concentration is calculated using the following formula: I=100*([…])/(SVC−SCC); ST, SCC and SVC are the amount of eGFP signal in the test compound, cell control and virus control wells, respectively. The EC50 represents the concentration of a compound at which the virus replication is inhibited with 50%, as measured by a 50% reduction of the eGFP fluorescent intensity compared to the virus control. The EC50 is calculated using linear interpolation (Table 1).

Another series concerns Vero cells. To be noted: African green monkey.

Structures are written as SMILES.

Turning to `COc1cc(NC(C(=O)c2c[nH]c3cc(F)ccc23)c2ccc(F)cc2OCCO)cc(S(C)(=O)=O)c1` (single isomer, unassigned) [Compound 1B, 1-(6-fluoro-1H-indol-3-yl)-2-(4-fluoro-2-(2-hydroxyethoxy)phenyl)-2-((3-methoxy-5-(methylsulfonyl)phenyl)amino)ethanone], in series [1], the EC50 (as a rule, the concentration that produces a half-maximal response) amounted to 0.085 µM. In the series on Vero cells, the midpoint of cytotoxicity, the CC50, lay at 13 µM.
In the case of `COc1cc(NC(C(=O)c2c[nH]c3cc(Cl)ccc23)c2ccc(F)cc2OCCO)cc(S(C)(=O)=O)c1` (single isomer, unassigned) [Compound 2B, 1-(6-chloro-1H-indol-3-yl)-2-(4-fluoro-2-(2-hydroxyethoxy)phenyl)-2-((3-methoxy-5-(methylsulfonyl)phenyl)amino)-ethanone], the EC50 in series [1] stood at 0.021 µM. In addition, the CC50 (in general, the concentration at which the toxic effect on the cells reaches its halfway point) in the series with Vero cells turned out to be 12 µM.
For `COc1cc(NC(C(=O)c2c[nH]c3c(C)c(F)ccc23)c2ccc(F)cc2OCCO)cc(S(C)(=O)=O)c1` (single isomer, unassigned) [Compound 3B, 2-(4-fluoro-2-(2-hydroxyethoxy)phenyl)-1-(6-fluoro-7-methyl-1H-indol-3-yl)-2-((3-methoxy-5-(methylsulfonyl)phenyl)amino)ethanone], in that order: 0.029 µM and 11 µM.
For the compound `COc1cc(NC(C(=O)c2c[nH]c3c(C)c(Cl)ccc23)c2ccc(F)cc2OCCO)cc(S(C)(=O)=O)c1` (single isomer, unassigned) [Compound 4A, 1-(6-chloro-7-methyl-1H-indol-3-yl)-2-(4-fluoro-2-(2-hydroxyethoxy)phenyl)-2-((3-methoxy-5-(methylsulfonyl)phenyl)amino)ethanone], the concentration for a half-maximal effect (EC50) in series [1] is 0.011 µM. The same compound registered a CC50 in the series with Vero cells of 11 µM.
As for `COc1cc(NC(C(=O)c2c[nH]c3cc(F)c(F)cc23)c2ccc(F)cc2OCCO)cc(S(C)(=O)=O)c1` (single isomer, unassigned) [Compound 5B, 1-(5,6-difluoro-1H-indol-3-yl)-2-(4-fluoro-2-(2-hydroxyethoxy)phenyl)-2-((3-methoxy-5-(methylsulfonyl)phenyl)-amino)ethanone], the EC50 in series [1] stood at 0.016 µM. The same compound had a CC50 with Vero cells of 11 µM.
In the case of `COc1cc(NC(C(=O)c2c[nH]c3cc(OC)c(C)cc23)c2ccc(F)cc2OCCO)cc(S(C)(=O)=O)c1` (single isomer, unassigned) [Compound 6B, 2-(4-fluoro-2-(2-hydroxyethoxy)phenyl)-2-((3-methoxy-5-(methylsulfonyl)phenyl)amino)-1-(6-methoxy-5-methyl-1H-indol-3-yl)ethanone], in series [1], the EC50 stood at 0.16 µM. The compound further yielded a 50% cytotoxic concentration (CC50) with Vero cells of 13 µM.
As to `COc1cc(NC(C(=O)c2c[nH]c3cc(F)c(C)cc23)c2ccc(F)cc2OCCO)cc(S(C)(=O)=O)c1` (single isomer, unassigned) [Compound 7B, 2-(4-fluoro-2-(2-hydroxyethoxy)phenyl)-1-(6-fluoro-5-methyl-1H-indol-3-yl)-2-((3-methoxy-5-(methylsulfonyl)phenyl)amino)ethanone], the EC50 in series [1] amounted to 0.036 µM. Moreover, the CC50 in the series on Vero cells stood at 8 µM.
For `COc1cc(NC(C(=O)c2c[nH]c3c(F)cc(C)cc23)c2ccc(F)cc2OCCO)cc(S(C)(=O)=O)c1` (single isomer, unassigned) [Compound 8B, 2-(4-fluoro-2-(2-hydroxyethoxy)phenyl)-1-(7-fluoro-5-methyl-1H-indol-3-yl)-2-((3-methoxy-5-(methylsulfonyl)phenyl)amino)ethanone], in that order: 0.048 µM and 8.2 µM.
Take `COc1cc(NC(C(=O)c2c[nH]c3c(C)cc(Cl)cc23)c2ccc(F)cc2OCCO)cc(S(C)(=O)=O)c1` (single isomer, unassigned) [Compound 9B, 1-(5-chloro-7-methyl-1H-indol-3-yl)-2-(4-fluoro-2-(2-hydroxyethoxy)phenyl)-2-((3-methoxy-5-(methylsulfonyl)phenyl)amino)ethanone]: the EC50 in series [1] worked out at 0.051 µM. Also, the CC50 in the series on Vero cells stood at 13 µM.
